Laboratory results: patent US20120177681A1, “Formulation of immunopotentiators” (priority 2010, published 2012)
Read-outs that look alike come from different tables or passages of the source.

Key:
[1] = biological target: T1, human TLR7 (Homo sapiens, UniProt Q9NYK1); experiment: HEK293 human TLR7 NF-κB luciferase reporter assay; type: cell-based; details: HEK293 cells
T1 construct: expressed in transfected cells; host or cells: HEK293
T1 sequence (Q9NYK1 27-1049): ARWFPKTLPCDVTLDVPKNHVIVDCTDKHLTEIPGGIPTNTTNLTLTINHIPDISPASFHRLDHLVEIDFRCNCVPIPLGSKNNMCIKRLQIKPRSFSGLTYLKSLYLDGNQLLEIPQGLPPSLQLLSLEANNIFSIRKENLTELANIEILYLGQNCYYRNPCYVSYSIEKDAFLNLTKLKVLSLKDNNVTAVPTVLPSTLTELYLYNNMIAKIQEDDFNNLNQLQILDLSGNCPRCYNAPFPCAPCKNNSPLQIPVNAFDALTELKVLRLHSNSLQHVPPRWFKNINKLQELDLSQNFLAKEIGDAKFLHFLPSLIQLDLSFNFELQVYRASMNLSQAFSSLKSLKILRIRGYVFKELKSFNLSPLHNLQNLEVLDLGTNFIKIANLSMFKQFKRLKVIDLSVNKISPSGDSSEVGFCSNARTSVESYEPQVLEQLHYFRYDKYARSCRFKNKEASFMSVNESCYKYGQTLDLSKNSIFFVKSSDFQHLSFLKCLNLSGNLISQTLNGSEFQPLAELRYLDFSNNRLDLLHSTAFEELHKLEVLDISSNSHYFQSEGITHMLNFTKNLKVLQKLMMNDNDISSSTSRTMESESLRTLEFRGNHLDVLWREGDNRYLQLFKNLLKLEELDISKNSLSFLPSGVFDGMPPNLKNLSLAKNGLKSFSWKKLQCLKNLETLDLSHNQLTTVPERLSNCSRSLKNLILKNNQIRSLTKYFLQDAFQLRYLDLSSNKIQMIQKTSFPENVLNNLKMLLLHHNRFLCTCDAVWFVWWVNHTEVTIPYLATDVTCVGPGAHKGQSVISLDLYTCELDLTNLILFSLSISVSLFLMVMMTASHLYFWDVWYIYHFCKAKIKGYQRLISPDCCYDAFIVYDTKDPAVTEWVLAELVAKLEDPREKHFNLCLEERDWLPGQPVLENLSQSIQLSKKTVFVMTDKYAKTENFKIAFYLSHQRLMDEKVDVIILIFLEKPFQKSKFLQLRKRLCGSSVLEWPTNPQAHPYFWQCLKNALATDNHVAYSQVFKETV
Protocol: The activity of this compound is assessed in an assay using HEK293 cells which are stably transfected with human TLR7 and an NF-κB-driven luciferase reporter vector (pNifty-Luciferase). As a control assay, normal HEK293 transfected with pNifty-Luc are used. Cells are cultured in DMEM supplemented with 2 mM L-glutamine, 10% heart inactivated FBS, 1% penicillin and streptomycin, 2 μg/ml puromycin and 5 μg/ml of blasticidin. Bright-Glo™ Luciferase assay buffer and substrate are supplied by Promega. Cells are plated at 25,000 cells/well in 384-well plates in a final volume of 50 μl of media. Cells are allowed to adhere to the plates after overnight (18 hours) culture at 37° C. and 5% CO2. Serially-diluted experimental and positive control compounds are then dispensed to each well and incubated for 7 hours at 37° C. and 5% CO2. Cells stimulated with DMSO alone serve as negative controls. After the incubation, 30 μl of the pre-mix assay buffer and substrate buffer are added to each well according to manufacturer's instructions. The luminescence signal is read on a CLIPR machine with an integration time of 20 seconds per plate.

[2] = Muscle levels 24 hours after intramuscular injection; type: in vivo, Balb/C mice; details: for concentration at 24 h: Balb/C, mouse, muscle, intramuscular, 100 μg i.m.; for concentration at 24 h / detection in muscle 24 hours after intramuscular injection: 100 μg
[3] = Desorption from Al—H by phosphate / buffer anions; type: physicochemical; details: KH2PO4 0.5M final, pH 9, overnight at 37° C.
[4] = Model of in vivo desorption from Al—H; type: in vitro ADME; details: 37° C.
[5] = Solubility in histidine buffer at pH 6.8; type: physicochemical
[6] = Water solubility; type: physicochemical; details: read-out: water-soluble at
[7] = Systemic serum exposure after intramuscular injection; type: in vivo, Balb/C mice; details: Balb/C, mouse; for AUC: im, 100 μg i.m.; for Cmax: intramuscular, 100 μg
[8] = type: physicochemical; details: SDS-PAGE of supernatants
[9] = tested on: serum cytokines; experiment: Serum cytokines after administration; details: in vivo
[10] = tested on: serogroup B meningococcus; type: in vivo, CD-1 mice; details: 5CVMB at days 0 & 14 with (b) the agonist compound
[11] = Adsorption to aluminium hydroxide (Al—H), HPLC of supernatant; type: physicochemical; details: parent compound, in words
[12] = Confocal microscopy / flow cytometry of association with Al—H; type: physicochemical; details: in the presence of Al—H
[13] = +Al—H (adsorbed), read-out: Levels of compound in muscle 24 hours after injection
[14] = SIF (simulated interstitial fluid)
[15] = 100 ug, compound alone, 24 hours
[16] = 100 ug, TLR2 agonists, compound alone
[17] = TLR2 agonists, +Al—H (adsorbed)

SMILES	EC50 [1]	concentration at 24 h [2, 13]	concentration at 24 h ([2]; compound alone)	solubility [6]	detection in muscle 24 hours after intramuscular injection ([2]; without Al—H (free form))	Cmax ([7]; +Al—H (adsorbed))	Cmax ([7]; compound alone)	detection in muscle 24 hours after intramuscular injection ([2]; injected with Al—H)	further results
CCCCCNc1nc(N)nc(C)c1Cc1ccc(CP(=O)(O)O)cc1 [Compound 69]	47.4 µM								
CCOCc1nc2c(N)nc3ccccc3c2n1CCOCCP(=O)(O)O [Compound 7]	66 µM								
CCCCCCCCCCCC(=O)OC[C@H](CSC[C@H](N)C(=O)NC1(COCCCP(=O)(O)O)CC1)OC(=O)CCCCCCCCCCC [Compound 22, (3-((1-((R)-2-amino-3-(((R)-2,3-bis(dodecanoyloxy)propyl)thio)propanamido)cyclopropyl)methoxy)propyl)phosphonic acid]		25300 nM	0 nM						
CCCCCNc1nc(N)nc(C)c1Cc1ccc(CP(=O)(O)O)cc1OC [Compound 8]	7.3 µM								
Cc1ccc2c(c1)nc(N)c1ncc(CCc3ccc(OCCCP(=O)(O)O)cc3C)cc12 [Compound 13]									compound in supernatant after KH2PO4 treatment (displacement / desorption) [3]: Increased quantities; proportion desorbed after 5 hours ([4]; His buff): 2%; proportion desorbed after 5 hours ([4]; Plasma/His buff): 9%; proportion desorbed after 5 hours [4, 14]: 4%; solubility in histidine buffer [5]: poorly soluble
COCCOc1nc(N)c2nc(O)n(Cc3ccc(CP(=O)(O)O)cc3)c2n1 [Compound 6, (4-((6-amino-2-(2-methoxyethoxy)-8-oxo-7H-purin-9(8H)-yl)methyl)benzyl)phosphonic acid]	0.41 µM	2770 nM	0 nM	> 1000 µg/mL	undetectable	5520 nM	6120 nM		detection in inguinal lymph nodes or in liver ([2]; after 24 hours): could not be detected; AUC [7, 15]: 7.18 µM·h; AUC ([7]; +Al—H (adsorbed), 24 hours): 13.4 µM·h
Cc1cc(OCCOCCOCCC(F)(F)P(=O)(O)O)ccc1CCc1cnc2c(N)nc3cc(CCC(=O)O)ccc3c2c1 [Compound 4]				> 1000 µg/mL	undetectable			readily detected	adsorption of MenB antigens to Al—H after pre-adsorption of compound [8]: completely adsorbed; proportion desorbed after 5 hours ([4]; His buff): 4%; proportion desorbed after 5 hours ([4]; Plasma/His buff): 81%; proportion desorbed after 5 hours [4, 14]: 100%
CCOCc1nc2c(N)nc3ccccc3c2n1CCOCCOCCOCCP(=O)(O)O [Compound 68, (2-(2-(2-(2-(4-amino-2-(ethoxymethyl)-1H-imidazo[4,5-c]quinolin-1-yl)ethoxy)ethoxy)ethoxy)ethyl)phosphonic acid]	28 µM	502 nM	0 nM	> 1000 µg/mL	undetectable	1720 nM	2120 nM	readily detected	AUC [7, 15]: 1.39 µM·h; AUC ([7]; +Al—H (adsorbed), 24 hours): 2.76 µM·h; effect of adsorption to Al—H on systemic cytokines [9]: generally reduced or unaffected
COCCOc1cc2c(nc(O)n2Cc2ccc(CP(=O)(O)O)cc2)c(N)n1 [Compound 67, (4-((4-amino-6-(2-methoxyethoxy)-2-oxo-2,3-dihydro-1H-imidazo[4,5-c]pyridin-1-yl)methyl)benzyl)phosphonic acid]	6.5 µM	2880 nM	0 nM	> 1000 µg/mL	undetectable	4510 nM	4060 nM	readily detected	SBA titers at day 28 [10]: 64; AUC [7, 15]: 3.57 µM·h; AUC ([7]; +Al—H (adsorbed), 24 hours): 8.11 µM·h; effect of adsorption to Al—H on systemic cytokines [9]: generally reduced or unaffected
Cc1cc(OCCCC(F)(F)P(=O)(O)O)ccc1CCc1cnc2c(N)nc3cc(CCC(=O)O)ccc3c2c1 [Compound 3]				> 1000 µg/mL	undetectable			readily detected	adsorption of MenB antigens to Al—H after pre-adsorption of compound [8]: completely adsorbed; proportion desorbed after 5 hours ([4]; His buff): 5%; proportion desorbed after 5 hours ([4]; Plasma/His buff): 49%; proportion desorbed after 5 hours [4, 14]: 100%
Cc1ccc(CCc2cnc3c(N)nc4cc(C)ccc4c3c2)c(C)c1 [compound O]									adsorption to the Al—H adjuvant [11]: fails to adsorb; co-localisation with Al—H (flow cytometry) [12]: separate population
CCCCCCCCCCCCOC[C@H](CSC[C@H](N)C(=O)NCCOCCOCCOCCP(=O)(O)O)OCCCCCCCCCCCC [Compound 74, ((14R,18R)-14-amino-18-(dodecyloxy)-13-oxo-3,6,9,20-tetraoxa-16-thia-12-azadotriacontyl)phosphonic acid]		49000 nM	27800 nM			317 nM	1940 nM		AUC [7, 16]: 37.4 µM·h; AUC [7, 17]: 3.39 µM·h
CCCCCCCCCCCC(=O)OC[C@H](CSC[C@H](N)C(=O)NCCOCCOCCOCCP(=O)(O)O)OC(=O)CCCCCCCCCCC [Compound 72, ((14R,18R)-14-amino-18-(dodecanoyloxy)-13,21-dioxo-3,6,9,20-tetraoxa-16-thia-12-azadotriacontyl)phosphonic acid]		14500 nM	0 nM						
CCCCCNc1nc(N)nc(C)c1Cc1ccc(OCCOCCC(F)(F)P(=O)(O)O)cc1OC [Compound 71, (3-(2-(4-((2-amino-4-methyl-6-(pentylamino)pyrimidin-5-yl)methyl)-3-methoxyphenoxy)ethoxy)-1,1-difluoropropyl)phosphonic acid]	2.7 µM	924 nM	0 nM	> 1000 µg/mL	undetectable	1810 nM	2600 nM	readily detected	SBA titers at day 28 [10]: 65; AUC [7, 15]: 2.09 µM·h; AUC ([7]; +Al—H (adsorbed), 24 hours): 4.22 µM·h; effect of adsorption to Al—H on systemic cytokines [9]: generally reduced or unaffected
CCCCCCCCCCCCOC[C@H](CSC[C@H](N)C(=O)NCCOCCOCCOCCP(=O)(O)O)NC(=O)CCCCCCCCCCC [Compound 80, ((14R,18R)-14-amino-18-dodecanamido-13-oxo-3,6,9,20-tetraoxa-16-thia-12-azadotriacontyl)phosphonic acid]		47200 nM	5070 nM			180 nM	2820 nM		AUC [7, 16]: 20.7 µM·h; AUC [7, 17]: 7.26 µM·h
